Assay results reported in PubChem BioAssay (NCI).
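How tested: cells in 96-well plates exposed to compound for 48 hours at five concentrations. Abbreviation: GI50, concentration required for 50% inhibition of growth. Definition used: TGI = concentration required for complete inhibition of growth.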

Legend:
Assay in all cases: NCI-60 cell line screen, 48 h
SK-MEL-28 melanoma = test system: SK-MEL-28 melanoma
SNB-75 CNS = test system: SNB-75 CNS
BT-549 breast = test system: BT-549 breast
ACHN renal = test system: ACHN renal
DU-145 prostate = test system: DU-145 prostate
SK-MEL-5 melanoma = test system: SK-MEL-5 melanoma
A498 renal = test system: A498 renal
SR leukemia = test system: SR leukemia
NCI-H522 lung = test system: NCI-H522 lung
OVCAR-5 ovarian = test system: OVCAR-5 ovarian

SMILES | GI50 (SK-MEL-28 melanoma) | TGI (SK-MEL-28 melanoma) | GI50 (SNB-75 CNS) | TGI (SNB-75 CNS) | GI50 (BT-549 breast) | TGI (BT-549 breast) | GI50 (ACHN renal) | TGI (ACHN renal) | GI50 (DU-145 prostate) | TGI (DU-145 prostate) | GI50 (SK-MEL-5 melanoma) | TGI (SK-MEL-5 melanoma) | GI50 (A498 renal) | TGI (A498 renal) | GI50 (SR leukemia) | TGI (SR leukemia) | GI50 (NCI-H522 lung) | TGI (NCI-H522 lung) | GI50 (OVCAR-5 ovarian) | TGI (OVCAR-5 ovarian)
CC1(C)[C@@H](O[C@@H]2OC[C@@H](O[C@@H]3O[C@H](CO)[C@@H](O)[C@H](O)[C@H]3O[C@@H]3OC[C@@H](O)[C@H](O)[C@H]3O)[C@H](O)[C@H]2O[C@@H]2O[C@H](CO)[C@@H](O)[C@H](O)[C@H]2O)CC[C@]2(C)[C@H]3CC[C@]45OC[C@@]6(CC[C@](C)(C=O)C[C@H]64)[C@H](O)C[C@@]5(C)[C@]3(C)CC[C@@H]12 | 0.903 µM | 1.77 µM | 0.746 µM | 1.53 µM | 1.14 µM | 3.37 µM | 0.824 µM | 1.54 µM | 1.09 µM | 2.33 µM | 2.8 µM | 5.36 µM | 0.825 µM | 1.53 µM | 0.185 µM | 1.92 µM | 0.903 µM | 1.83 µM | 0.834 µM | 1.66 µM
CCOC(=O)C(=Cc1ccc(Oc2ccccc2)cc1)C(=O)OCC | – | 7.49 µM | – | 11 µM | – | 5.11 µM | – | 18.3 µM | – | 27.5 µM | – | 3.9 µM | – | 28.8 µM | – | 6.07 µM | – | 10.1 µM | – | 14 µM
CCCCS(=O)(=O)CCC(N)C(=O)O (stereo not given) | – | > 100 µM | – | > 100 µM | – | > 100 µM | – | > 100 µM | – | > 100 µM | – | > 100 µM | – | > 100 µM | – | > 100 µM | – | > 100 µM | – | > 100 µM
CCC1CCc2nc3sc(C(=O)Nc4cccc(F)c4)c(N)c3cc2C1 (stereo not given) | > 100 µM | > 100 µM | 9.19 µM | > 100 µM | > 100 µM | > 100 µM | > 100 µM | > 100 µM | > 100 µM | > 100 µM | 0.386 µM | > 100 µM | 0.602 µM | > 100 µM | 0.379 µM | > 100 µM | > 100 µM | > 100 µM | > 100 µM | > 100 µM
Cc1cc(Cl)ccc1NC(=O)c1cc2ccccc2cc1O | 0.767 µM | > 100 µM | 7.14 µM | > 100 µM | 0.673 µM | > 100 µM | 0.583 µM | > 100 µM | 1.15 µM | > 100 µM | 0.373 µM | 2.43 µM | 0.22 µM | 1.4 µM | 0.443 µM | 8.77 µM | 0.304 µM | > 29.4 µM | 4.2 µM | > 100 µM
CC(=O)O[C@]1(C(C)=O)CC[C@H]2[C@@H]3C=C(C)C4=CC(=O)CC[C@]4(C)[C@H]3CC[C@@]21C | > 100 µM | > 100 µM | > 59.8 µM | > 100 µM | 37.4 µM | > 100 µM | > 74.1 µM | > 100 µM | > 100 µM | > 100 µM | 56.3 µM | > 100 µM | > 75.7 µM | > 100 µM | > 55.8 µM | > 100 µM | 53.2 µM | > 100 µM | > 100 µM | > 100 µM
CC1OC(OC2C(O[C@H]3CC[C@@]4(C)C(=CC[C@H]5[C@@H]6C[C@@H]7O[C@]8(CC[C@H](C)CN8)[C@@H](C)[C@@H]7[C@@]6(C)CC[C@@H]54)C3)OC(CO)C(O)C2OC2OC(CO)C(O)C(O)C2O)C(O)C(O)C1O (stereo not given in full) | – | 38.5 µM | – | 29.2 µM | – | 30.9 µM | – | 31.4 µM | – | 33.6 µM | – | 33.6 µM | – | 42.9 µM | – | 61.6 µM | – | 30.3 µM | – | 28.7 µM
COc1cc(/C=C/C(=O)c2ccc(NC(=O)CN3CCN(c4cc5c(cc4F)c(=O)c(C(=O)O)cn5C4CC4)CC3)cc2)cc(OC)c1OC | 1.42 µM | 12.7 µM | 2.41 µM | > 23.9 µM | 0.405 µM | 1.44 µM | 0.692 µM | > 26.6 µM | 1.07 µM | > 27.1 µM | 0.871 µM | 4.39 µM | 0.825 µM | 2.83 µM | 0.245 µM | > 100 µM | 0.976 µM | 3.77 µM | 2.96 µM | > 27.1 µM
Cc1occc1C(=S)Nc1ccc(Cl)c(C(=O)OC(C)C2CC2)c1 (stereo not given) | – | > 100 µM | – | 68.9 µM | – | 54.5 µM | – | 42 µM | – | > 100 µM | – | 31.8 µM | – | 48.2 µM | – | 68.2 µM | – | 32.9 µM | – | 61.2 µM
